Values after ≈ are worked out from the molar mass of the structure shown.

Data set [1] relates to production of TNF-α in rat PBMCs. Kind of data set: Inhibition of TNF-α production in rat PBMCs (LPS/IFN-γ stimulated, ELISA). It counts as cell-based. Conditions: PBMC; for IC50: rat PBMCs, LPS + IFN-γ, 18 hours; for inhibition at 3 µg/mL: @ 3 μg/ml. As to the method:
(§1) Compounds of this invention were evaluated for their ability to inhibit the production of TNF-α in stimulated immune cells. […] Compounds of the present invention were evaluated for their therapeutic activity in animal models for inflammatory or immunological disorders. Also compounds of this invention were assayed for their ability to inhibit PDE4 isozymes.
Inhibition of TNF-α Production in Rat PBMCs: Compounds of the present invention were evaluated for their ability to inhibit the production of TNF-α in rat peripheral blood mononuclear cells (PBMCs) as described in the literature. [Exp. Geront. vol 37, 235-247 (2002)] In brief, 6 ml rat blood drawn from the abdominal vein as treated with ACD (acid/citrate/dextrose) was carefully added in a tube containing 6 ml Ficoll 1077, and the tube was centrifuged for 30 min at 1500 rpm (415 G) at room temperature. The cell fraction (middle fraction) was suspended in a 50 ml tube containing phosphate buffered saline (PBS). The tube was centrifuged for 5 min at 2000 rpm (737 G). The resulting pellet was suspended in 6 ml PBS and 6 ml Ficoll 1077, and centrifuged for 30 min at 1500 rpm (415 G) at room temperature to remove remaining plasma. The cell fraction was suspended in PBS and centrifuged for 5 min at 2000 rpm. Such a washing was repeated twice. Then the collected cells were suspended in 10 ml RPMI-1640 containing 10% FBS and further diluted to contain 4×10^6 cells per ml. The cell suspension was dispensed into a 96-well plate at 100 μl per well, which was pre-supplemented with 1 μl of either DMSO (placebo) or a DMSO stock solution containing a designated concentration of a compound of this invention. The plate was cultured for an hour at 37° C. under 5% CO2 and 95% O2. To each well, was added 100 μl RPMI-1640 containing 0.1 μg/ml LPS, 5 U/ml IFN-γ, and 10% FBS. Then the plate was subjected to a culture for 18 hours at 37° C. under 5% CO2 and 95% O2. An aliquot of the supernatant from each well was subjected to an ELISA assay to determine the TNF-α level in the well.
(ELISA stands for enzyme-linked immunosorbent assay.)

Data set [2] relates to production of TNF-α in human PBMCs. As to the kind of experiment: Inhibition of TNF-α production in human PBMCs (ELISA). In kind it is cell-based. The settings on record: PBMC. Here is the method:
as §1
Inhibition of TNF-α Production in Human PBMCs: Compounds of the present invention were evaluated for their ability to inhibit the production of TNF-α in human PBMCs as described in the literature. [J. Med. Chem. vol 39, 3238-3240 (1996)] Blood was freshly drawn from healthy human subjects as treated with ACD to isolate human PBMCs according to the procedure employed for rat PBMCs. The employed assay method for the ELISA against human TNF-α was essentially identical to that for the rat TNF-α ELISA assay.

For data set [3], the system named is production of TNF-α in mice stimulated with LPS. As to the kind of experiment: In vivo inhibition of TNF-α production in mice stimulated with LPS. Conditions: Mus musculus, 2 h, LPS i.p., plasma at hour 2, read-out: % Inhibition of in vivo TNF-α production @ dose; for inhibition in vivo at 3 mg/kg: 3 mg/kg oral gavage. As to the method: [J. Pharmacol. Exp. Therapeut. vol 279, 1453-1461 (1996)] In brief, either a compound of the instant invention with vehicle or vehicle only (5% Tween 80) was administered by oral gavage (10 ml/kg body weight) at hour 0 to mice (Balb/C or ICR, 25˜30 g) fasted overnight. The mice were subjected to a peritoneal injection with […] LPS per mouse at hour 0.5, and blood was drawn from the abdominal vein at hour 2 following euthanasia with CO2. Then plasma separated from the drawn blood by centrifugation was subjected to an ELISA assay to measure the level of TNF-α.

For the compound `O=[N+]([O-])c1cccc(C2=C(C3CCCC3)CCC2=NO)c1` [Example 4, 3-cyclopentyl-2-(3-nitrophenyl)-2-cyclopenten-1-one oxime], the melting point – broadly, the temperature of the solid-liquid transition – was 162 to 163 °C.

Consider `Cc1ccc(C2=C(C3CCCC3)CCC2=NO)cc1[N+](=O)[O-]` [Example 5, 3-cyclopentyl-2-(4-methyl-3-nitrophenyl)-2-cyclopenten-1-one oxime], for which the melting point was 178 to 180 °C. Besides, the inhibition (in general, the change of the read-out against control, counted positive when it falls) at 0.3 µg/mL in data set [1] (Rattus norvegicus, @ 0.3 μg/ml) came to 66%.

`N#Cc1cccc(C2=C(C3CCCC3)CCC2=NO)c1` [Example 12, 2-(3-cyanophenyl)-3-cyclopentyl-2-cyclopenten-1-one oxime] yielded a melting point of 180 to 182 °C. The IC50 (in general, the concentration that inhibits the measured activity by half) in data set [1] worked out at 0.1 µg/mL. The compound also returned an IC50 in data set [2] of 0.16 µg/mL (≈ 0.601 µM).

The compound `N#Cc1cc(C2=C(C3CCCC3)CCC2=NO)ccc1F` [Example 13, 2-(3-cyano-4-fluorophenyl)-3-cyclopentyl-2-cyclopenten-1-one oxime] showed a melting point of 167 to 168 °C. Moreover, the IC50 in data set [1] is 0.4 µg/mL. Moreover, the inhibition in vivo – broadly, the percentage by which the read-out fell short of the control – at 0.3 mg/kg in data set [3] (0.3 mg/kg oral gavage) is 70%.

As for `C=Cc1ccc(C2=C(C3CCCC3)CCC2=NO)cc1` [Example 18, 3-cyclopentyl-2-(4-vinylphenyl)-2-cyclopenten-1-one oxime], the melting point was 177 to 179 °C. Moreover, testing at 3 µg/mL in data set [1] (Rattus norvegicus) gave an inhibition of 78%.

`ON=C1CCC(C2CCCC2)=C1c1cccc2c1oc1ccccc12` [Example 19, 3-cyclopentyl-2-(4-dibenzofuranyl)-2-cyclopenten-1-one oxime] registered a melting point of 195 to 200 °C. Also, the 50% inhibitory concentration (IC50) in data set [1] is 1 µg/mL.

The compound `CS(=O)(=O)c1cccc(C2=C(C3CCCC3)CCC2=NO)c1` [Example 23, 3-cyclopentyl-2-(3-methylsulfonylphenyl)-2-cyclopenten-1-one oxime] came in with a melting point of 164 to 165 °C. Further, the half-inhibitory concentration (IC50) in data set [1] is 1.2 µg/mL.

With `ON=C1CCC(C2CCCC2)=C1c1cccc(O)c1` [Example 24, 3-cyclopentyl-2-(3-hydroxyphenyl)-2-cyclopenten-1-one oxime], the melting point fell in the range of 207 to 209 °C.

Take `OCc1cccc(C2=C(C3CCCC3)CCC2=NO)c1` [Example 25, 3-cyclopentyl-2-(3-hydroxymethylphenyl)-2-cyclopenten-1-one oxime]: the IC50 in data set [1] is 1.5 µg/mL.

Regarding `OCc1ccc(C2=C(C3CCCC3)CCC2=NO)cc1` [Example 26, 3-cyclopentyl-2-(4-hydroxymethylphenyl)-2-cyclopenten-1-one oxime], the melting point was 187 to 190 °C.

For `ON=C1CCC(C2CCCCC2)=C1c1ccc(F)cc1` [Example 27, 3-cyclohexyl-2-(4-fluorophenyl)-2-cyclopenten-1-one oxime], the melting point lay in the range of 173 to 176 °C. Also, the IC50 in data set [1] worked out at 0.34 µg/mL. In data set [3], the inhibition in vivo at 3 mg/kg worked out at 87%.

Consider `ON=C1CCC(C2CCCCC2)=C1c1ccc(F)c(F)c1` [Example 30, 3-cyclohexyl-2-(3,4-difluorophenyl)-2-cyclopenten-1-one oxime], for which the IC50 in data set [1] is less than 0.1 µg/mL.

`O=[N+]([O-])c1cccc(C2=C(C3CCCCC3)CCC2=NO)c1` [Example 31, 3-cyclohexyl-2-(3-nitrophenyl)-2-cyclopenten-1-one oxime] returned a melting point of 201 to 202 °C.

As to `COc1cccc(C2=C(C3CCCCC3)CCC2=NO)c1` [Example 32, 3-cyclohexyl-2-(3-methoxyphenyl)-2-cyclopenten-1-one oxime], the melting point was in the range of 149 to 150 °C. For the same compound, in data set [1], the IC50 turned out to be 0.49 µg/mL. Moreover, the inhibition in vivo at 3 mg/kg in data set [3] came to 92%.

Compound `CCCCC1=C(c2ccc(F)cc2)C(=NO)CC1` [Example 33, 3-butyl-2-(4-fluorophenyl)-2-cyclopenten-1-one oxime] displayed a melting point of 115 to 116 °C. Besides, the 50% inhibitory concentration (IC50) in data set [1] was 2 µg/mL.

As for `CCCCC1=C(c2ccc(F)c(F)c2)C(=NO)CC1` [Example 34, 3-butyl-2-(3,4-difluorophenyl)-2-cyclopenten-1-one oxime], the concentration for half-maximal inhibition (IC50) in data set [1] is 0.3 µg/mL.

`CCCCC1=C(c2ccc(O)c(F)c2)C(=NO)CC1` [Example 41, 3-butyl-2-(3-fluoro-4-hydroxyphenyl)-2-cyclopenten-1-one oxime] displayed a melting point of 141 to 147 °C.

`CCCCC1=C(c2cccc(C(F)(F)F)c2)C(=NO)CC1` [Example 58, 3-butyl-2-{3-(trifluoromethyl)phenyl}-2-cyclopenten-1-one oxime] returned a melting point of 65 to 67 °C. For the same compound, in data set [1] (Rattus norvegicus), the inhibition at 3 µg/mL worked out at 59%.

Consider `CCCCCC1=C(c2ccc(F)cc2)C(=NO)CC1` [Example 65, 2-(4-fluorophenyl)-3-pentyl-2-cyclopenten-1-one oxime], for which the melting point fell in the range of 101 to 102 °C. Moreover, the IC50 in data set [1] is roughly 1 µg/mL. In data set [2], this compound gave an IC50 of 1.2 µg/mL (≈ 4.59 µM).

As for `CCCCCC1=C(c2ccccc2)C(=NO)CC1` [Example 66, 3-pentyl-2-phenyl-2-cyclopenten-1-one oxime], the melting point was 110 to 111 °C. Besides, the IC50 in data set [1] is 1 to 3 µg/mL. Besides, the inhibition in vivo at 3 mg/kg in data set [3] was 45%.

`CCCCCC1=C(c2cccc([N+](=O)[O-])c2)C(=NO)CC1` [Example 71, 2-(3-nitrophenyl)-3-pentyl-2-cyclopenten-1-one oxime] gave a melting point of 79 to 80 °C.

As for `CCCCCC1=C(c2ccsc2)C(=NO)CC1` [Example 77, 3-pentyl-2-(3-thienyl)-2-cyclopenten-1-one oxime], the melting point lay in the range of 105 to 106 °C. The 50% inhibitory concentration (IC50) in data set [1] amounted to 2.8 µg/mL.

For `CCCC1=C(c2ccc(F)cc2)C(=NO)CC1` [Example 78, 2-(4-fluorophenyl)-3-propyl-2-cyclopenten-1-one oxime], the melting point was in the range of 165 to 166 °C. Further, in data set [1], the IC50 stood at 0.62 µg/mL.

Consider `CCCC1=C(c2cccc([N+](=O)[O-])c2)C(=NO)CC1` [Example 80, 2-(3-nitrophenyl)-3-propyl-2-cyclopenten-1-one oxime], for which, in data set [1], the IC50 came out at 0.2 µg/mL. Also, in data set [3], the inhibition in vivo at 3 mg/kg was 95%.

In turn, `CCC1=C(c2ccc(F)cc2)C(=NO)CC1` [Example 81, 3-ethyl-2-(4-fluorophenyl)-2-cyclopenten-1-one oxime] displayed a melting point of 168 to 169 °C. For the same compound, in data set [1], the concentration for half-maximal inhibition (IC50) was roughly 3 µg/mL.

`CC1=C(c2ccc(F)cc2)C(=NO)CC1` [Example 83, 2-(4-fluorophenyl)-3-methyl-2-cyclopenten-1-one oxime] returned a melting point of 170 to 171 °C. Also, the IC50 in data set [1] was roughly 10 µg/mL.

`CC(C)CC1=C(c2ccc(F)cc2)C(=NO)CC1` [Example 85, 2-(4-fluorophenyl)-3-isobutyl-2-cyclopenten-1-one oxime] registered a melting point of 154 to 157 °C. In data set [1], the IC50 turned out to be 0.77 µg/mL.

The compound `CC(C)CC1=C(c2ccc(F)c(F)c2)C(=NO)CC1` [Example 86, 2-(3,4-difluorophenyl)-3-isobutyl-2-cyclopenten-1-one oxime] gave a melting point of 136 to 139 °C. For the same compound, the IC50 in data set [1] turned out to be 0.27 µg/mL.

`CC(C)CC1=C(c2cccc(C#N)c2)C(=NO)CC1` [Example 89, 2-(3-cyanophenyl)-3-isobutyl-2-cyclopenten-1-one oxime] displayed a melting point of 138 to 140 °C. In data set [1], the IC50 was 0.09 µg/mL.

`CCCCCCCCCc1ccc(C2=C(CC(C)C)CCC2=NO)cc1F` [Example 90, 2-(3-fluoro-4-n-nonylphenyl)-3-isobutyl-2-cyclopenten-1-one oxime] returned a melting point of 85 to 86 °C.
